Assay: Human HepG2 cell viability assay in 384 well format
Assay type: toxicity, cell-based
Design: dose 125 nL, time 70.5 hour; concentration not given beside the values
Conditions: HepG2 cells, read-out: Inhibition

Compound | cytotoxicity at 70.5 h [%]
Cc1cc(C(=O)N[C@H]2CC[C@@]3(CCC(=O)N3C)CC2)no1 | -9.34
COc1ccccc1C(NCc1ccc(SC)cc1)c1nccn1C (centres undefined) | 11.2
Cc1ccc(-c2c[nH]c([C@@H]3COCCN3Cc3cccnc3)n2)cc1 | 14.4
CCSc1cc(C(=O)N(CC(F)F)C(C)C)ccn1 | -3.2
CCn1cc(-c2cc(-c3cc(CN(C)C)cs3)nc(N)c2C#N)c(C)n1 | -6.34
CCc1cnc(CN(C)C2CCN(CC3CCC3)C2)o1 (centres undefined) | 8.96
Cc1cc(C)n2nc(C(=O)N3CCCC4(CCOC4)C3)cc2n1 (centres undefined) | -10.3
CCc1csc(C2CCCN(C(=O)c3ccncc3)C2)n1 (centres undefined) | -5.33
O=C(CN1C[C@H]2CC[C@@H]1CN(Cc1ccccn1)C2)NCc1cccs1 | -7.94
O=C([C@H]1C[C@@H]2[C@@H](C1)OCCN2CC1CC1)N1CCCC1 | -1.83
O=S(=O)(C1CC1)N1CCn2c(Cn3cncn3)cnc2C1 | 0.357
O=C(O)C[C@@H]1CCN(C(=O)c2cccs2)C[C@@H]1CCN1CCCCC1 | -3.9
CCCC(NC(=O)c1cncc(C)c1)c1nnn[nH]1 (centres undefined) | 6.22
CC(C)c1nn(C)c(N(C)C)c1CNCC(O)c1cccc(F)c1 (centres undefined) | -10
Cc1ccc(C(=O)N(C)CCCc2cnn(C)c2)cc1N1CCNC1=O | 46.5
Cc1nc2c(c(N3CCC(O)(CN4CCCC4)CC3)n1)CCN(C)CC2 | -3.57
CCc1cnc(CCNC(=O)N2CCCC(c3ncc[nH]3)C2)s1 (centres undefined) | 1.32
CC(C)(C)NC(=O)c1ccn(COc2c(Cl)cccc2Cl)n1 | -0.674
Cc1cc(N(C)C)nc(C2(C)CCNCC2)n1 | 46.3
Cc1ccc(-c2cc(C(=O)N(C)Cc3noc4c3CCCC4)[nH]n2)s1 | 21.6
COCCc1ncc(CNC2(c3ccc(Cl)cc3Cl)CC2)cn1 | -1.55
Cc1cc(CN2CCN(c3nn4cc(C)nc4s3)CC2)on1 | -7.1

Compound | cytotoxicity at 70.5 h [%]
O=C(c1cc[nH]n1)N1CCc2ncnc(N3CCSCC3)c2CC1 | 10.4
COCc1cccc(NC(=O)N(C)Cc2ncc(C)c(OC)c2C)c1 | -3.88
CCn1ccnc1CN1CCN(c2ncnc3ccccc23)CC1 | -2.5
COc1ccc(C(=O)C2CCCN(CCc3ccccc3)C2)c(OC)c1 (centres undefined) | 18.4
c1cnn(CCNCc2csc(-c3ccc4c(c3)OCO4)n2)c1 | -1.83
O=C(N1CCOCC1)N1CCN(CC(O)c2ccc(F)cc2)CC1 (centres undefined) | 3.33
COc1cccc2c1OCCCN(c1nc(C)nc3c1CCNCC3)C2 | -5.98
O=C(NCc1cc[nH]n1)NCC(O)COc1cccc(F)c1 (centres undefined) | 22.7
COc1ccc(CC2(CO)CCN(c3cc(C(N)=O)ccn3)CC2)cc1 | -2.15
OC(CNc1nc(C2CCCC2)nc2c1CCNCC2)C(F)(F)F (centres undefined) | -7.87
Cc1ccnc(NC(=O)C2CCCO2)c1 (centres undefined) | 6.19
CN(Cc1nccn1CC(F)(F)F)C(=O)c1ccc2c(c1)OCO2 | -11
Cc1csc(N2CCN(Cc3cnc(C)s3)CC2C)n1 (centres undefined) | -2.09
c1ccc(CCCn2cc(-c3nc(CN4CCOCC4)no3)nn2)cc1 | -15
COc1ccc2c(c1)OCC(Cc1ccc(C)nc1N)C2 (centres undefined) | 13.9
Cc1cc(NC(=O)CN2CCc3c(nc(C(C)C)n3C)C2)on1 | -14.3
CCN1CCC2(CC1)CC(NCc1ccncc1)c1ccccc1O2 (centres undefined) | -20.8
COCC(C)(CCO)NC(=O)Nc1cccc(F)c1C (centres undefined) | 21.4
Cc1sc2nc(CCN)nc(N3CC(N4CCCCC4)C3)c2c1C | 26
Cc1ccc(NC2CCN(C(=O)CCC3CCCO3)CC2)nn1 (centres undefined) | -3.33
O=C(COc1ccccc1)N1C[C@@H](O)[C@H](N2CCCC2)C1 | -12.1
CNc1nc(C)c(C(=O)N2C[C@H]3CC[C@@H]2CN(c2cnccn2)C3)s1 | -6.37

— ChEMBL document CHEMBL3507680, “University of Dundee, Gates Library screen for HepG2 cell viability”
